We go through 3 compounds from patent US11717580B2, “Cyclodextrin-linked polyvalent ligands for complexation of metal ions” (UTI LIMITED PARTNERSHIP, priority 2018, dated 2023).

One data set concerns HeLa cells. Description: In vitro cytotoxicity MTT assay, HeLa. The format is cell-based. The note with it: concentrations higher than 1 mM.
Data set [1] is described as follows: Potentiometric titrations of compound 5 (protonation constants). It counts as physicochemical. As for the experimental part:
T=298K, [L]=0.0625-1 μmol, [extra-HCl]=0-37.3 μmol in NMe4Cl (0.1 M); total initial volume: 4 mL; burette: [NMe4OH]=0.05 M.
Potentiometric titrations were performed to study the deprotonation of compound 5 (FIG. 6). The initial solution of compound 5 alone has a pH of ˜8.4; this value correlates well with extensive deprotonation observed in ATR-FTIR spectrum. Therefore, a solution of HCl in trimethylammonium chloride (0.1 M) was gradually added to the solution to obtain a series of solutions with varied HCl/5 ratios (0→597), while maintaining the total volume constant. To each prepared solution, a titrant solution of tetramethylammonium hydroxide (0.05 M) was added while the pH of the solution recorded; this enabled preparation of a series of titration curves (FIG. 7).
The protonation constant βh for the following equilibrium is defined by equation 1, where L represents the fully deprotonated form (L^14−) of compound 5 (LH14). H is the proton (charges are omitted).
[formula] As dissociation constants Ka are commonly defined by:
[formula] [formula] [formula] it is evident that Ka=log βh−log βh-1 (equation 3)
Table 1 reports all protonation constants determined by titration curve refinement and the corresponding acidity constants. All pKa values were ascribed to successive deprotonation of the carboxylic acids, followed by ammonium functions.

Data set [2] is described as follows: Potentiometric titrations of compound 5 with Gd(III) (stability constants and speciation of Gd(III) complexes). It counts as binding. An excerpt: Considering the collection of results obtained for the Gd(III)-compound 5, the best chemical model which fits the data corresponds to: (1) mononuclear GdL species for Gd:L ratio lower than 1, (2) binuclear species Gd2L for Gd:L ratio higher than 1 or (3) trinuclear species Gd3L for Gd:L ratio higher than 2.
The complexation of compound 5 with Gd(III) was studied by potentiometric titrations. While maintaining the amount of compound 5 (0.5 μmol) and HCl (9.95 μmol) constant within the cell, a solution of GdCl3 was then added to reach a specified ratio. This solution was then titrated with tetramethylammonium hydroxide (NMe4OH). It was noted that with the solution containing the highest Gd:L ratios, the addition of same amount of base caused a slower increase of pH (FIG. 12A). This could be explained by the displacement of protons from the protonated groups during Gd(III) complexation, thus acidifying the medium.
The stability constants of the Gd(III) complexes are expressed by the general formula:
[formula] with M being the metal ion, L the ligand, and H the proton (the charges are omitted), and dissociation constant Kmlh can be defined similarly to the case of free ligand as:
[formula] [formula] [formula] Analogously, pKmlh=log βmlh−log βmlh-1 (equation 6)
The stability constants of the Gd(III) complexes are reported in the Table 2 and distribution curves given in FIGS. 12B, 12C and 12D, respectively for 1:1, 2:1 and 3:1 Gd(III):compound 5 ratios.

For another data set, the system named is HepG2 cells. Description: In vitro cytotoxicity MTT assay, HepG2. To be noted: concentrations higher than 1 mM. It counts as cell-based. (Tetrazolium assays rely on reduction of a dye to a coloured formazan, in cell work by metabolically active cells.)
For data set [3] the following is noted: 12 MHz; cited from earlier work.
The conditions of data set [4]: cited from earlier work.

The structures appear in SMILES notation. Where two headings read alike, the source gives them in different places.

In general, pKa refers to the negative logarithm of the acid dissociation constant. Consider `O=C(O)CN(CC(=O)O)Cc1cn(C[C@H]2O[C@@H]3O[C@H]4[C@H](O)[C@@H](O)[C@@H](O[C@H]5[C@H](O)[C@@H](O)[C@@H](O[C@H]6[C@H](O)[C@@H](O)[C@@H](O[C@H]7[C@H](O)[C@@H](O)[C@@H](O[C@H]8[C@H](O)[C@@H](O)[C@@H](O[C@H]9[C@H](O)[C@@H](O)[C@@H](O[C@H]2[C@H](O)[C@H]3O)O[C@@H]9Cn2cc(CN(CC(=O)O)CC(=O)O)nn2)O[C@@H]8Cn2cc(CN(CC(=O)O)CC(=O)O)nn2)O[C@@H]7Cn2cc(CN(CC(=O)O)CC(=O)O)nn2)O[C@@H]6Cn2cc(CN(CC(=O)O)CC(=O)O)nn2)O[C@@H]5Cn2cc(CN(CC(=O)O)CC(=O)O)nn2)O[C@@H]4Cn2cc(CN(CC(=O)O)CC(=O)O)nn2)nn1` [Compound 5], for which the “cytotoxic effect (inhibition)” value in the data set on HeLa cells and with HepG2 cells was 20-40% throughout. Further, in data set [1] (compound 5 alone), the “pH of initial solution” value is given as ~8.4. Besides, the “log βLHh” value came to 8.80 in data set [1] (species LH); 17.77 in data set [1] (species LH2); 26.44 in data set [1] (species LH3); 34.51 in data set [1] (species LH4); 42.44 in data set [1] (species LH5); 50.03 in data set [1] (species LH6). For the same compound, the “log βLHh” value was 56.23 in data set [1] (species LH7), 61.22 in data set [1] (species LH8), 64.85 in data set [1] (species LH9) and 67.42 in data set [1] (species LH10). For the same compound, the pKa in data set [1] (species LH) is 8.80; in data set [1] (species LH2), 9.08; in data set [1] (species LH3), 8.56; in data set [1] (species LH4), 8.07; in data set [1] (species LH5) it was ~7.93; in data set [1] (species LH6), ~7.59. For the same compound, the pKa in data set [1] (species LH7) is 6.20; in data set [1] (species LH8) it was 4.99; in data set [1] (species LH9) it was 3.63; in data set [1] (species LH10) it was 2.57; in data set [1] (species LH11-LH21) it was <2. The “log βMLHh” value in data set [2] (dinuclear species Gd2L (MLH 210)) came out at 36.28. In addition, the “log βGd (210)−log βGd (110)” value in data set [2] (introduction of second Gd(III) cation) is 11.19. In data set [2] (introduction of third Gd(III) cation), the “log βGd (310)−log βGd (210)” value is on record as 7.63.

On to `CO[C@@H]1[C@@H](OC)[C@H]2O[C@H]3[C@H](OC)[C@@H](OC)[C@@H](O[C@H]4[C@H](OC)[C@@H](OC)[C@@H](O[C@H]5[C@H](OC)[C@@H](OC)[C@@H](O[C@H]6[C@H](OC)[C@@H](OC)[C@@H](O[C@H]7[C@H](OC)[C@@H](OC)[C@@H](O[C@H]8[C@H](OC)[C@@H](OC)[C@@H](O[C@@H]1[C@@H](CN(CC(=O)O)CC(=O)O)O2)O[C@@H]8CN(CC(=O)O)CC(=O)O)O[C@@H]7CN(CC(=O)O)CC(=O)O)O[C@@H]6CN(CC(=O)O)CC(=O)O)O[C@@H]5CN(CC(=O)O)CC(=O)O)O[C@@H]4CN(CC(=O)O)CC(=O)O)O[C@@H]3CN(CC(=O)O)CC(=O)O` [compound 3], for which, in data set [3], the relaxivity is 8.8 mM⁻¹ s⁻¹.

Take `CC[N+](CC)(CC)CC` [triethylammonium]: the pKa in data set [4] is listed as ~10.75.
